Here are results for three molecules from patent publication US20050276764A1, “Topical use of bis-arylimidazo[1,2-a]thiolane derivatives” (Beiersdorf AG, priority 2002, published 2005).

Holding throughout (type): cell-based
One series concerns 3T3 cells. Briefly: 3T3 NRU Phototoxicity Assay (COLIPA Validation Ring Study 1997), neutral red absorption. The note with it: for NR50 irradiated / NR50 non-irradiated: 3T3 cells, concentration at which neutral red absorption has fallen to 50% of the check value; for NR50 irradiated: UV-irradiated cultures; for NR50 non-irradiated: non-irradiated cultures; for Quotient non-irradiated/irradiated PIF: ratio of NR50 non-irradiated to irradiated, the lower the quotient, the lower the phototoxicity; for Phototoxicity in comparison to the non-oxidized comparative compound: photocytotoxicity tests, versus 4,5-bis(4-methoxyphenyl)-imidazo[1,2-a]thiolane. How it is done: The photocytotoxicity of 4,5-bis(4-methoxyphenyl)-imidazo[1,2-a]thiolane-1-oxide and 4,5-bis(4-methoxyphenyl)-imidazo[1,2-a]thiolane-1-dioxide in comparison to 4,5-bis(4-methoxyphenyl)-imidazo[1,2-a]thiolane according to standard protocol “3T3 NRU Phototoxicity Assay” of the COLIPA Validation Ring Study of 1997 is shown in FIG. 1.
In the test method used, the change to the neutral red absorption of 3T3 cells is measured by UV irradiation. Only vital cells absorb the dye, a reduced absorption thus indicates a toxicity of the test substance added. The so-called NR50 value is typically determined for evaluation, i.e. those concentrations of the test substance for which the neutral red absorption has fallen to 50% of the check value. In order to determine the phototoxicity, this value is determined for non-irradiated and irradiated cultures and put in a ratio. The lower the quotient, the lower the phototoxicity (see Table 1).

Series [1] deals with prostaglandin E2 (PGE2) production in human fibroblasts stimulated with LPS. Briefly: Inhibition of LPS-induced PGE2 production in human fibroblasts. The note with it: for Inhibition of PGE2 production: human fibroblasts, LPS-stimulated, supernatant PGE2 24 hours later, FIG. 2. The protocol:
The influence of 4,5-bis(4-methoxyphenyl)-imidazo[1,2-a]thiolane-1-oxide and 4,5-bis(4-Methoxyphenyl)-imidazo[1,2-a]thiolane-1-dioxide in comparison to 4,5-bis(4-methoxyphenyl)-imidazo[1,2-a]thiolane on eicosanoid production is illustrated in FIG. 2. For the samples in FIG. 2, human fibroblasts were stimulated with LPS and 24 hours later the supernatant PGE2 content was determined. Either Diclofenac with standard effects or dilutions of DKH derivatives were added to the LPS-stimulated cultures. Non-stimulated cultures and cultures only stimulated with LPS were measured as a control test.
Human fibroblasts in culture were induced to release prostaglandin E2 (PGE2) by means of lipopolysaccharide (LPS). Inhibition of this PGE2 production by imidazoles was then determined in the test.

The subject of series [2] is LTB4 release by human neutrophile granulocytes stimulated with fMLP. Briefly: Release of LTB4 by fMLP-stimulated human neutrophile granulocytes. The conditions noted are these: for Inhibition of LTB4 release: human neutrophile granulocytes, fMLP-stimulated, supernatant LTB4 2 hours later, FIG. 3. How it is done:
A second test method was used to determine the influence of imidazoles on the release of LTB4 by stimulated granulocytes. Human neutrophile granulocytes from the peripheral blood were isolated, cultured and stimulated for LTB4 production with formylated methionyl-leucyl-phenylalanine (fMLP). Specifically, human neutrophile granulocytes were stimulated with fMLP and 2 hours later the supernatant LTB4 content was determined. Either BayX1005 with standard effects or dilutions of DKH derivatives were added to the fMLP-stimulated cultures. Non-stimulated cultures and cultures only stimulated with fMLP were measured as a control test.

Consider `COc1ccc(-c2nc3n(c2-c2ccc(OC)cc2)CCS3)cc1` [4,5-bis(4-methoxyphenyl)-imidazo[1,2-a]thiolane, reference compound], for which, in the series with 3T3 cells, the NR50 irradiated stood at 0.177 mg/L, the NR50 non-irradiated was more than 10 mg/L and the “Quotient non-irradiated/irradiated PIF” value is more than 56.
On to `COc1ccc(-c2nc3n(c2-c2ccc(OC)cc2)CC[S+]3[O-])cc1` (stereo not shown) [4,5-bis(4-methoxyphenyl)-imidazo[1,2-a]thiolane-1-oxide], for which, in the series with 3T3 cells, the NR50 irradiated is more than 42.3 mg/L, the NR50 non-irradiated was more than 100 mg/L, the “Phototoxicity in comparison to the non-oxidized comparative compound” value is “considerably reduced phototoxicity” and the “Quotient non-irradiated/irradiated PIF” value is given as more than 2.4. Further, in series [1], the “Production of prostaglandin E2 in fibroblasts” value is recorded as “considerably reduced” and the “Inhibition of PGE2 production” value was “sufficient inhibition in the concentration range below one microgram per millimeter”. Also, in series [2], the “Production of leukotriene B4 in granulocytes” value was “considerably reduced” and the “Inhibition of LTB4 release” value is “improved inhibition of LTB4 release”.
`COc1ccc(-c2nc3n(c2-c2ccc(OC)cc2)CCS3(=O)=O)cc1` [4,5-bis(4-methoxyphenyl)-imidazo[1,2-a]thiolane-1-dioxide]: in the series with 3T3 cells, the NR50 irradiated came to 7.77 mg/L, the NR50 non-irradiated is more than 50 mg/L, the “Phototoxicity in comparison to the non-oxidized comparative compound” value is recorded as “considerably reduced phototoxicity” and the “Quotient non-irradiated/irradiated PIF” value is given as more than 6.4. Further, in series [1], the “Production of prostaglandin E2 in fibroblasts” value is given as “considerably reduced” and the “Inhibition of PGE2 production” value is given as “sufficient inhibition in the concentration range below one microgram per millimeter”. For the same molecule, in series [2], the “Production of leukotriene B4 in granulocytes” value is “considerably reduced” and the “Inhibition of LTB4 release” value was “improved inhibition of LTB4 release”.
